Results on 13 molecules are retold here after BindingDB's records for doi:10.1016/j.bmcl.2004.02.008 (Astrazeneca, 2004).

The target in this experiment is Cyclin-dependent kinase 2/G1/S-specific cyclin-E1 (Homo sapiens, UniProt P24941). Description: CDK Assay. The following applies: pH 7; 22 °C. The protocol: The kinase activity was assayed using an in vitro scintillation proximity assay (SPA) for measuring incorporation of [gamma-33P] ATP into GST-Rb.

Structures are written as SMILES.

What is called IC50 is the point on the concentration scale where inhibition reaches its midpoint. High values mean weaker potency, low ones greater potency. In the case of `CCSc1ccc2ncc(-c3ccnc(Nc4ccc(S(=O)(=O)NCCOC)cc4)n3)n2c1` [4-({4-[6-(ethylsulfanyl)imidazo[1,2-a]pyridin-3-yl]pyrimidin-2-yl}amino)-N-(2-methoxyethyl)benzene-1-sulfonamide], the IC50 is less than 3 nM.

Molecule `COCCNS(=O)(=O)c1ccc(Nc2nccc(-c3cnc4ccc(Br)cn34)n2)cc1` [4-[(4-{6-bromoimidazo[1,2-a]pyridin-3-yl}pyrimidin-2-yl)amino]-N-(2-methoxyethyl)benzene-1-sulfonamide] gave an IC50 of less than 3 nM.

In the case of `COCCNS(=O)(=O)c1ccc(Nc2nccc(-c3cnc4ccc(C#N)cn34)n2)cc1` [4-[(4-{6-cyanoimidazo[1,2-a]pyridin-3-yl}pyrimidin-2-yl)amino]-N-(2-methoxyethyl)benzene-1-sulfonamide], the IC50 is less than 3 nM.

In turn, `COCCN(C)S(=O)(=O)c1ccc(Nc2nccc(-c3cnc4cccnn34)n2)cc1` [4-[(4-{imidazo[1,2-a]pyridazin-3-yl}pyrimidin-2-yl)amino]-N-(2-methoxyethyl)-N-methylbenzene-1-sulfonamide] gave a half-maximal inhibitory concentration (IC50) of 600 nM.

Molecule `COCCNS(=O)(=O)c1ccc(Nc2nccc(-c3cnc4cccnn34)n2)cc1` [4-[(4-{imidazo[1,2-a]pyridazin-3-yl}pyrimidin-2-yl)amino]-N-(2-methoxyethyl)benzene-1-sulfonamide] had an IC50 of less than 3 nM.

For the molecule `CNS(=O)(=O)c1ccc(Nc2nccc(-c3cnc4cccnn34)n2)cc1` [4-[(4-{imidazo[1,2-a]pyridazin-3-yl}pyrimidin-2-yl)amino]-N-methylbenzene-1-sulfonamide], the 50% inhibitory concentration (IC50) was less than 3 nM.

The molecule `NS(=O)(=O)c1ccc(Nc2nccc(-c3cnc4cccnn34)n2)cc1` [4-[(4-{imidazo[1,2-a]pyridazin-3-yl}pyrimidin-2-yl)amino]benzene-1-sulfonamide] had an IC50 of less than 3 nM.

Molecule `COCCNS(=O)(=O)c1ccc(Nc2ncc(Sc3ccccc3)c(-c3cnc4ccccn34)n2)cc1` [4-[(4-{imidazo[1,2-a]pyridin-3-yl}-5-(phenylsulfanyl)pyrimidin-2-yl)amino]-N-(2-methoxyethyl)benzene-1-sulfonamide] yielded an IC50 greater than 10000 nM.

`c1ccc(Nc2nccc(-c3cnc4cccnn34)n2)cc1` [4-{imidazo[1,2-a]pyridazin-3-yl}-N-phenylpyrimidin-2-amine] registered an IC50 of 1000 nM.

Molecule `COCCNS(=O)(=O)c1ccc(Nc2nccc(-c3c(C)nc4cccnn34)n2)cc1` [N-(2-methoxyethyl)-4-[(4-{2-methylimidazo[1,2-a]pyridazin-3-yl}pyrimidin-2-yl)amino]benzene-1-sulfonamide] came in with an IC50 of 3 nM.

`COCCNS(=O)(=O)c1ccc(Nc2nccc(-c3cnc4ccc(OC)nn34)n2)cc1` [N-(2-methoxyethyl)-4-[(4-{6-methoxyimidazo[1,2-a]pyridazin-3-yl}pyrimidin-2-yl)amino]benzene-1-sulfonamide] returned an IC50 of 600 nM. This IC50 is about 200-fold higher than that of the molecule before.

Molecule `CN(C)CCNS(=O)(=O)c1ccc(Nc2nccc(-c3cnc4cccnn34)n2)cc1` [N-[2-(dimethylamino)ethyl]-4-[(4-{imidazo[1,2-a]pyridazin-3-yl}pyrimidin-2-yl)amino]benzene-1-sulfonamide] had a half-inhibitory concentration (IC50) of 8 nM.

Consider `CN(C)CCCNS(=O)(=O)c1ccc(Nc2nccc(-c3cnc4cccnn34)n2)cc1` [N-[3-(dimethylamino)propyl]-4-[(4-{imidazo[1,2-a]pyridazin-3-yl}pyrimidin-2-yl)amino]benzene-1-sulfonamide], for which the IC50 is less than 3 nM.
